Assay results from patent US20050170019A1, “Methods, compositions and devices for inducing stasis in cells” (Fred Hutchinson Cancer Research Center, priority 2003, published 2005).

Tests used:
[1] = tested on: mice; assay: Respirometry (oxygen consumption, carbon dioxide production) of mice exposed to H2S; type: in vivo, mouse
Description: Measurements were over a period of 15 minutes, with the mice in a 0.5 L sealed environmental chamber with flow rates of 500 cc/min. Consumption of oxygen is obtained by subtracting the oxygen concentration when the mouse is present, from the control when the mouse is absent. Likewise, production of carbon dioxide is obtained by subtracting the carbon dioxide concentration when the mouse is present from the control when the mouse is absent. RQ stands for respiratory quotient, and is equal to the ratio of carbon dioxide produced to oxygen […]. […] The change in the respiratory quotient reflects the disparity oxygen consumption and carbon dioxide production by the mice in the presence or absence of the H2S.

[2] = tested on: mice; conditions: 80 ppm, cited from earlier work
[3] = tested on: humans; conditions: cited from earlier work
[4] = tested on: mice; assay: Visual observation of breathing of mice administered H2S; type: in vivo, mouse
From the text: The different parameters of stasis (reduction in oxygen consumption, decrease in carbon dioxide production or decrease in motility) can be assessed by a variety of assays and techniques. […] Indeed, this encompasses all three parameters in that it is indicative of decreased oxygen consumption, carbon dioxide production and motility. A normal mouse in room air at standard conditions will take approximately 200 breaths per minute. […] Thus, this represents at least about a 1-20-fold decrease in cellular respiration (i.e, oxygen consumption and carbon dioxide production).
During the experiment, the mouse was visually observed and its movements were recorded by web camera, and telemetry measurements were recorded as described above. […] At the end of an approximately six-hour period, heat was applied to the cabinet by setting the cabinet temperature to 25° C. […] After the cabinet was warmed, weak respiration was observed when the core body temperature of the mouse achieved 14° C. […] Normal movement and respiration were fully apparent when the core body temperature returned to 25° C.

[5] = tested on: mice; assay: Telemetry of core body temperature, heart rate and movement of mice in regulated H2S atmosphere; type: in vivo, mouse
From the text: Implantation of telemetry devices.
Exposure of Mice to Regulated Atmosphere.
Regulation of Ambient Temperature. […] Mice were exposed to regulated atmosphere as described above.

[6] = tested on: mice; conditions: mice tested before and after exposure
[7] = tested on: rats; conditions: cited from earlier work
[8] = mice, H2S 80 ppm versus without H2S
[9] = second mouse, 80 ppm, 3 hrs, incubator 18° C.

S [hydrogen sulfide, Hydrogen sulfide]
RQ (respiratory quotient) ([1]; H2S (80 ppm) present): 0.58
production of carbon dioxide ([1]; H2S (80 ppm) present): 750 ppm
Consumption of oxygen ([1]; H2S (80 ppm) present, control without mouse minus mouse present): 1300 ppm
drop in carbon dioxide production [1, 8]: 3-4 fold
drop in oxygen consumption [1, 8]: 2-3 fold
decrease in CO2 production ([1]; mouse, 80 ppm (FIG. 4A)): approximately 3 fold
time to reduced carbon dioxide production (new baseline) ([1]; mouse, 80 ppm (FIG. 4A)): approximately 5 minutes
tolerability ([2]; exposures lasting up to ten weeks (CIIT 1983; Hays, 1972)): innocuous
adverse effect, gross and histopathological examination ([2]; mice, 6 hrs per day, 5 days per week, 90 days): no observed adverse effect
effect of exposure to extreme levels ([3]; 500 ppm): sudden collapse and unconsciousness
effect of a single breath (knock down) ([3]; atmosphere with 0.1% hydrogen sulfide): immediately collapse
OSHA limit for humans ([3]; in vivo): 10 ppm
core body temperature at which weak respiration was observed on warming ([4]; 80 ppm, after cabinet 10.5° C., warming): 14 °C
decrease in cellular respiration ([4]; 80 ppm, core temperature 15° C., from breathing): 1-20 fold
breathing ([4]; 80 ppm, core temperature dropped to 15° C., normal approximately 200): 1-10 breaths per minute
core body temperature at which normal movement and respiration were fully apparent ([4]; after 80 ppm at 10.5° C., warming, room air): 25 °C
core temperature reached ([5]; first mouse, 80 ppm, 90 min, incubator 18° C.): 28.6 °C
time to return to normal range of core temperature and activity in room air ([5]; first mouse, after 90 min at 80 ppm): ≤ 60 min
behavior of the animals after treatment ([5]; four mice maintained for 4 weeks after 6 hr 80 ppm at 15° C.): no apparent change in the behavior
behavior compared to untreated animals ([5]; mouse after 80 ppm at cabinet 10.5° C.): no apparent change in the behavior
core body temperature repeatedly reached ([5]; mouse, 80 ppm protocol): 13-15 °C
lowest core body temperature recorded (FIG. 7) ([5]; mouse, 80 ppm, ambient dropped to less than 10° C.): 10.7 °C
time to recover activity after removal from gassing chamber ([5]; non-telemetry mouse, 80 ppm, cabinet 10° C.): ≤ 90 min
core temperature reached [5, 9]: 18.6 °C
heart rate reached (from 600 bpm) [5, 9]: 250 bpm
recovery after rewarming in room air ([5]; seven mice, 80 ppm, 6 hrs): successfully recovered
lowest average core body temperature ([5]; seven mice, 80 ppm, 6 hrs, ambient temperature 13° C.): 15 °C
core temperature reached (estimation, electronics failed at 15.3° C.) ([5]; telemetry mouse, 80 ppm, cabinet 10° C.): approximately 12.5 °C
core body temperature reached ([5]; telemetry mouse, 80 ppm, cabinet 10.5° C., approximately six hours): 10.5 °C
behavioral differences after gas exposure [6]: no detectable behavioral differences
neurologic effect of perinatal exposure ([7]; 20 or 50 ppm, 7 hours per day, gestation through post-natal day 21): longer dendritic branches with reduced aborization of cerebellar Purkinje cells
effects in exposed rat pups, perinatal study ([7]; 80 ppm (Dorman et al., 2000)): no neuropathological effects or altered motor activity, passive avoidance, or acoustic startle response
learning of baited radial arm maze task ([7]; moderate levels (Partlo et al., 2001)): interferes with the ability of rats to learn a baited radial arm maze task
discriminated avoidance responses ([7]; moderate levels, immediately after end of exposure (Higuchi and Fukamachi)): inhibits discriminated avoidance responses
adverse effect, gross and histopathological examination ([7]; rats, 80 ppm, 6 hrs per day, 5 days per week, 90 days): no observed adverse effect
